{
  "source": "patent US20030138476A1",
  "about": "“Use of glutamate and/or a glutamate precursor for the preparation of a nutritional or pharmaceutical preparation for the treatment or prevention of hyperpermeability or undesired permeability of the intestinal wall” (priority 2000, published 2003)",
  "key": {"HT-29CL.19A cells [1]": {"test_system": "HT-29CL.19A cells", "experiment": "Transepithelial (apical to basolateral) HRP permeability of HT-29CL.19A monolayers, hyperpermeability induced by PDB", "type": "cell-based, human", "details": "PDB 1 mmol/l", "description": "The macromolecular permeability of the intestinal epithelium is controlled by the passage through intercellular tight junctions in the paracellular channels. Opening of these tight junctions is controlled by the epithelial cells in response to various intercellular mediators, such as Ca, cyclic AMP, G proteins and protein kinase c. The human intestinal cell line HT-29CL.19A is becoming increasingly more important for studying this paracellular permeability in vitro. See also the abovementioned article in J. Parenteral Enteral Nutrition, that is incorporated herein by reference.\nFor the present examples, confluent monolayers of HT-29CL19A cells were cultured on permeability filters. […] The transepithelial permeability from apical to basolateral was determined for horseradish peroxidase (HRP) with the aid of an enzyme assay. Phorbol 12,13-dibutyrate (PDB, 1 mmol/l) was used to increase the permeability. […] All agents were added to the apical compartment."}, "HT-29CL.19A cells [2]": {"test_system": "HT-29CL.19A cells", "details": "Kouznetsova et al. J. Parenteral Enteral Nutrition 23 (1999) 136-139; cited from earlier work"}, "[3]": {"details": "cited from earlier work"}},
  "data": [
    {"smiles": "N[C@H](C(=O)O)[C@@H]1CC(Cl)=NO1", "note": "[Acivicin, acivicin]", "values": [
      {"measurement": "effect of acivicin on the reduction in PDB-induced hyperpermeability in the presence of glutamate", "setting": "HT-29CL.19A cells [1]; in the presence of glutamate", "value": "This effect did not occur"},
      {"measurement": "effect of acivicin on the glutamine-mediated reduction in PDB-induced hyperpermeability", "setting": "HT-29CL.19A cells [1]; in the presence of glutamine", "value": "prevented the glutamine-mediated reduction in the hyperpermeability"}
    ]},
    {"smiles": "N[C@@H](CCC(=O)O)C(=O)O", "note": "[Glutamate, glutamate]", "values": [
      {"measurement": "effect on PDB-induced hyperpermeability (HRP flux)", "setting": "HT-29CL.19A cells [1]; glutamate 0.6 mmol/l, apical, p<0.001", "value": "had the same effect"},
      {"measurement": "effect on PDB-induced hyperpermeability (HRP flux)", "setting": "HT-29CL.19A cells [1]; glutamate 0.6 mmol/l, apical, p<0.001, listed as glutamate", "value": "reduces the macromolecular hyperpermeability"}
    ]},
    {"smiles": "NC(=O)CC[C@H](N)C(=O)O", "note": "[Glutamine, glutamine]", "values": [
      {"measurement": "effect on PDB-induced hyperpermeability (HRP flux)", "setting": "HT-29CL.19A cells [1]; glutamine added to apical compartment", "value": "reduces this hyperpermeability appreciably"},
      {"measurement": "effect on macromolecular hyperpermeability of intestinal cells induced by phorbol 12,13-dibutyrate", "setting": "HT-29CL.19A cells [2]", "value": "able to lower the macromolecular hyperpermeability"},
      {"measurement": "solubility", "setting": "[3]", "value": "poor solubility"}
    ]},
    {"smiles": "CCCC(=O)O[C@@H]1[C@@H](C)[C@@]2(O)[C@@H](C=C(CO)C[C@]3(O)C(=O)C(C)=C[C@@H]23)[C@@H]2C(C)(C)[C@]12OC(=O)CCC", "note": "[PDB, Phorbol 12,13-dibutyrate]", "values": [
      {"measurement": "increase of HRP flux compared with the control", "setting": "HT-29CL.19A cells [1]; apical, after 150-279 min stimulation, p<0.001", "value": 3, "unit": "fold"}
    ]}
  ]
}
